Article PMC7508162 (Frontiers in Pharmacology, 2020)
Read-outs that look alike come from different tables or passages of the source.

Key:
human CD39 [1] = target: T1, human CD39 (Homo sapiens, UniProt P49961); assay: Malachite green assay for CD39 (natural substrate ATP); assay type: biochemical; parameters: Human umbilical cord membrane preparations (250 ng) natively expressing high amounts of CD39; from tissue; host or cells: human umbilical cord membranes; settings: natural substrate ATP 50 µM, n = 3, read-out: Ki ± SEM (converted)
T1 sequence (P49961 1-510): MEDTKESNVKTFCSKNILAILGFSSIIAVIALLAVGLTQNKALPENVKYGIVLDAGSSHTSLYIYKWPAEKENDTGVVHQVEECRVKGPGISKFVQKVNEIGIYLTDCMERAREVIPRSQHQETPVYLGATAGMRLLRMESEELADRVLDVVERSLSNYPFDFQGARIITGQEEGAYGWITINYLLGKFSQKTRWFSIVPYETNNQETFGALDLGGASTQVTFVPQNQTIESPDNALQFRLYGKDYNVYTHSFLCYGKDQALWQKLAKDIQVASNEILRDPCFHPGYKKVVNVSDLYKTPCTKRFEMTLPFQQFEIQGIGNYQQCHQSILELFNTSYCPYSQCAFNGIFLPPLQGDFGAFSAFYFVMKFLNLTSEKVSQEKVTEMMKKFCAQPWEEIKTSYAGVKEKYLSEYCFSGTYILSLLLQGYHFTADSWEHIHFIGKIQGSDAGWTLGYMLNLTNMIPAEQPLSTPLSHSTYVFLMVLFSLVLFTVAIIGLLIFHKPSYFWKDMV
Method: (§1) They were minced and homogenized with a polytron in 95 mM NaCl, 0.1 mM phenylmethylsulfonyl fluoride (PMSF), and 45 mM Tris solution, pH 7.6. […] The pellets were resuspended in 5 mM Tris buffer solution, pH 8.0 and 10% glycerol. All purification steps were performed at 4°C. The preparations were kept at −80°C.
The reaction buffer contained 10 mM HEPES, 2 mM CaCl2, 1 mM MgCl2, pH 7.4 in a final volume of 50 μl in transparent 96-well half area plates. For CD39 (NTPDase1), we made use of human umbilical cord membranes preparations which express high levels of the enzyme. For the other human NTPDase isoenzymes, we had to resort to recombinant expression. […] The amount of enzyme preparation was adjusted to ensure 10–20% of substrate conversion. […] The released (inorganic) phosphate was quantified after 20 min of gentle shaking at 25°C by measuring the absorption of the malachite green-phosphomolybdate complex at 600 nm using a BMG PheraStar FS plate reader (BMG Labtech GmbH, Ortenberg, Germany).
% Inhibition=(B−T)/B*100%
where B is the average corrected absorption of the positive control without inhibitor and T the corrected absorption in the presence of test compound.
Full concentration-inhibition curves were determined with inhibitor concentrations ranging from 0.1 to 300 µM in the presence of 2% DMSO. Three independent experiments were performed (n = 3) and curves were calculated by the GraphPad Prism 8 software. The Ki value was calculated using the Cheng-Prusoff equation for competitive inhibitors: […]

human CD39 [2] = target: T1, human CD39; assay: Fluorescence capillary electrophoresis assay for CD39; assay type: biochemical; parameters: Human umbilical cord membrane preparations (250 ng) natively expressing high amounts of CD39; from tissue; host or cells: human umbilical cord membranes; settings: for Ki: fluorescent substrate PSB-017621A 0.5 µM, human umbilical cord membrane preparation, n = 3, Cheng-Prusoff, read-out: Ki ± SEM
Method: as §1
For inhibition screening, three independent experiments were performed. […] The reaction buffer contained 10 mM HEPES, 2 mM CaCl2, 1 mM MgCl2, pH 7.4. The samples were incubated at 37°C for 4 min, and the enzymatic reaction was terminated by heating at 90°C for 5 min. The solution was then diluted 1:20 with reaction buffer to perform separation of nucleotides by capillary electrophoresis (CE) followed by laser-induced fluorescence (LIF) detection. […] Three independent experiments were performed, and curves were calculated by GraphPad Prism 8 software (GraphPad software, San Diego, CA, USA).
Analysis was carried out using a P/ACE MDQ capillary electrophoresis system (Beckman Instruments, Fullerton, CA, USA). The separation was performed in a polyacrylamide-coated capillary [30 cm (10 cm effective length) × 50 µm (id), × 360 µm (od)]. Before each run, the capillary was rinsed with the background electrolyte [50 mM phosphate buffer (pH 6.5)] for 1 min at 30 psi. Samples were electrokinetically injected by applying a voltage of -6 kV for 30 s at the capillary outlet, and the fluorescent nucleotide derivatives were separated by voltage application of -15 kV. […] Data collection and peak area analysis were performed by the P/ACE MDQ software 32 KARAT obtained from Beckman Coulter (Fullerton, CA, USA).

rat CD39 = target: rat CD39; parameters: method as in Baqi et al., 2009; settings: Figure 2, ref Baqi et al., 2009, read-out: Ki (reported potency); cited from earlier work
human CD39 [3] = target: T1, human CD39; parameters: Human umbilical cord membrane preparations (250 ng) natively expressing high amounts of CD39; from tissue; host or cells: human umbilical cord membranes; method as in Lee et al., 2018; settings: fluorescent substrate of CD39; ref Lee et al., 2018; cited from earlier work
NTPDase3 = target: T2, NTPDase3 (Homo sapiens, UniProt O75355); settings: read-out: Km (NTPDase3); substrate ATP; ref Kukulski et al., 2005; cited from earlier work
T2 sequence (O75355 1-529): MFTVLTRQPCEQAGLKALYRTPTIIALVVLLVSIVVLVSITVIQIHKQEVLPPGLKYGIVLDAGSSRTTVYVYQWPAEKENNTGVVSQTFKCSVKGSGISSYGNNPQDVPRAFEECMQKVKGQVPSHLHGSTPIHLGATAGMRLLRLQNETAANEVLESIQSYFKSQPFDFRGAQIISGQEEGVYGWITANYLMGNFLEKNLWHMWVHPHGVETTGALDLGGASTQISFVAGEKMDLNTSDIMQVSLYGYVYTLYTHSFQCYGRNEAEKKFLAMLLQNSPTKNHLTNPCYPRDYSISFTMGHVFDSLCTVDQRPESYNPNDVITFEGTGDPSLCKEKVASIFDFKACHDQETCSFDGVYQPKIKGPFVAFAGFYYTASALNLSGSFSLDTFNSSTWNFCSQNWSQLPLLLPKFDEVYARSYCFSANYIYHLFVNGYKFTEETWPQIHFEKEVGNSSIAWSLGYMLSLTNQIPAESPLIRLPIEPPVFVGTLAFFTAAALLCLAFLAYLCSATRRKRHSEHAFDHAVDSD

NTPDase8 = target: T3, NTPDase8 (Homo sapiens, UniProt Q5MY95); settings: read-out: Km (NTPDase8); substrate ATP; ref Kukulski et al., 2005; cited from earlier work
T3 sequence (Q5MY95 1-495): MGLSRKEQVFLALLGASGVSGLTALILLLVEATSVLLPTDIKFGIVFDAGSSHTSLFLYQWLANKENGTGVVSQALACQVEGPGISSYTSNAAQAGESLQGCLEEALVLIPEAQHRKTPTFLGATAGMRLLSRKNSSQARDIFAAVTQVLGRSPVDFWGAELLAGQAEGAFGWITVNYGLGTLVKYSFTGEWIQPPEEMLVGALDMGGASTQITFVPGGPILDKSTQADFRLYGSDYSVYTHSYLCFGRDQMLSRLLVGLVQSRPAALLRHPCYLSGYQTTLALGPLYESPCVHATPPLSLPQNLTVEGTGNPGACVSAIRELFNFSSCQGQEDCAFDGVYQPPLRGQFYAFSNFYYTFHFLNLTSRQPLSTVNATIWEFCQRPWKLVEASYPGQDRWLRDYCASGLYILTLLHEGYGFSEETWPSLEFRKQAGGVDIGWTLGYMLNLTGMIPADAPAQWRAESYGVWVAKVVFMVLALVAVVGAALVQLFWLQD

human CD39 [4] = target: T1, human CD39; settings: read-out: Km (CD39); substrate ATP; ref Kukulski et al., 2005; cited from earlier work
NTPDase2 = target: T4, NTPDase2 (Homo sapiens, UniProt Q9Y5L3); settings: read-out: Km (NTPDase2); substrate ATP; ref Kukulski et al., 2005; cited from earlier work
T4 sequence (Q9Y5L3 1-495): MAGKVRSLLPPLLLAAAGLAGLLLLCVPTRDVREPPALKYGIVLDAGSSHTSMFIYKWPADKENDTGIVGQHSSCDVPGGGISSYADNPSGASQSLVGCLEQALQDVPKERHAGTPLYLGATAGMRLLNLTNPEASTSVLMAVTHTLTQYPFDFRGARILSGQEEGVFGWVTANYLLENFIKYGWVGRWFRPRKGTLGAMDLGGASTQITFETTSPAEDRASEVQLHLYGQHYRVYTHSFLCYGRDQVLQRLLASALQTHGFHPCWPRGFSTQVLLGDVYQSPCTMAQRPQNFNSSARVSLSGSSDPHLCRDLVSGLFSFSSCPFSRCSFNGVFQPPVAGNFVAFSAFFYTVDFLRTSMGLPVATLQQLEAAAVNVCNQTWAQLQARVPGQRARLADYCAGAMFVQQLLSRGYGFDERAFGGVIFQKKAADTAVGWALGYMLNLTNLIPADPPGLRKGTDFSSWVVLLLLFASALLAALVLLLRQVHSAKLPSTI

human CD39 [5] = target: T1, human CD39; parameters: Human umbilical cord membrane preparations (250 ng) natively expressing high amounts of CD39; from tissue; host or cells: human umbilical cord membranes; settings: Figure 2, ref Crack et al., 1995, Müller et al., 2006, Lévesque et al., 2007, Baqi et al., 2009, Lecka et al., 2013, Lee et al., 2015, Kanwal et al., 2019, read-out: Ki (reported potency); cited from earlier work

Nc1ncnc2c1ncn2[C@@H]1O[C@H](COP(=O)(O)OP(=O)(O)C(F)(F)P(=O)(O)O)[C@@H](O)[C@H]1O [Compound 40, (((((((2R,3S,4R,5R)-5-(6-Amino-9H-purin-9-yl)-3,4-dihydroxytetrahydrofuran-2-yl)methoxy)-(hydroxy)-phosphoryl)oxy)(hydroxy)phosphoryl)difluoromethyl)-phosphonic Acid]
Ki (human CD39 [1]): 4.55 µM
Ki (human CD39 [2]): 10.6 ± 0.4 µM
IC50 (in words) (human CD39 [2]; human CD39): low micromolar range
fold less potent than dibromo-derivative 38 at CD39 (human CD39 [2]; ratio of Ki values, fluorescence CE assay): about 2 fold

Nc1ncnc2c1ncn2[C@@H]1O[C@H](COP(=O)(O)CP(=O)(O)OP(=O)(O)O)[C@@H](O)[C@H]1O [Compound 41, α,β-Methylene-ATP, reference compound]
Ki (human CD39 [1]): 7.2 µM
Ki (human CD39 [2]): 0.632 ± 0.024 µM

Nc1c(S(=O)(=O)O)cc(Nc2ccc3ccccc3c2)c2c1C(=O)c1ccccc1C2=O [III, 1-Amino-2-sulfo-4-(2-naphthylamino)-anthraquinone]
Ki (rat CD39): 0.33 µM

O=C(NCCCCCCNc1ncnc2c1ncn2[C@@H]1O[C@H](COP(=O)(O)OP(=O)(O)OP(=O)(O)O)[C@@H](O)[C@H]1O)c1ccc2c(c1)C(=O)OC21c2ccc(O)cc2Oc2cc(O)ccc21 [PSB-017621A, N^6-[6-(Fluoresceinyl-5′-carboxamido)hexyl]-ATP]
Km (human CD39 [3]): 19.6 µM

Nc1ncnc2c1ncn2[C@@H]1O[C@H](COP(=O)(O)OP(=O)(O)OP(=O)(O)O)[C@@H](O)[C@H]1O [ATP]
Km (NTPDase3): 75 µM
Km (NTPDase8): 46 µM
Km (human CD39 [4]): 17 µM
Km (NTPDase2): 70 µM

Oc1c(Cl)cc(Cl)cc1/C=N/CCc1c[nH]c2ccccc12 [Tryptamine derivative (V)]
Ki (human CD39 [5]): 0.021 µM

CCCCSc1nc2c(N(CC)CC)ncnc2n1[C@@H]1O[C@H](COP(=O)(O)OP(=O)(O)C(Br)(Br)P(=O)(O)O)[C@@H](O)[C@H]1O [Compound 37, (Dibromo((((((2R,3S,4R,5R)-5-(8-(butylthio)-6-(diethylamino)-9H-purin-9-yl)-3,4-dihydroxy-tetrahydrofuran-2-yl)methoxy)(hydroxy)phosphoryl)oxy)-(hydroxy)phosphoryl)methyl)phosphonic Acid]
Ki (human CD39 [1]): 5.98 µM
Ki (human CD39 [2]): 7.48 ± 1.29 µM
